The text below walks through data of patent US20170158636A1, “FUNCTIONALISED AND SUBSTITUTED CARBAZOLES AS ANTI-CANCER AGENTS” (Novogen Ltd., priority 2014, published 2017).

The test system of series [1] is A549 lung (NSLC) cancer cells. Briefly: Anti-proliferative activity, cell-titre luminescent viability assay. The format is cell-based. As to conditions: Homo sapiens, 72 hours exposure. The method, then: (§1) The ability of compounds 1001-1018 and 1037-1039 to inhibit the proliferation of cancer cells representative of neuroblastoma, melanoma, prostate cancer, colorectal cancer, non-small cell lung carcinoma, and triple negative breast cancer was assessed (Table 1).
(§2) Briefly, a pre-determined number of cells as calculated from cell growth assays for each of the cell lines employed were seeded into their respective culture medium (using ATCC culture parameters—http://www.atcc.org) and cultured for 24 hours at 37° C. and 5% CO2 in 96-well culture plates. Once attached, each cell line was then exposed to increasing concentrations of each respective analogue (0.03, 0.3, 3 and 30 μM for compounds 1001-13 and 1015-18; 0.1, 0.3, 1, 3, 10 and 30 μM for compounds 1014 and 1037-39), cultured for a further 72 hours and exposed to cell-titre luminescent reagent (100 μL/well) for a further 30 minutes) to measure cell viability. Luminescence was captured using an EnVision multilabel reader and the data for each analogue concentration compared against no treatment control. For compounds 1001-13 and 1015-18, semi-log plots of Percent of Control versus concentration were prepared and IC50 determined using linear regression analysis. For compounds 1014 and 1037-39, cell viability was normalized to control (vehicle alone) and dose-response curves, and half maximal effective concentration (EC50) values were determined using Graph Pad Prism 6 (nonlinear regression sigmoidal dose-response variable slope).

The test system of series [2] is PC3 prostate cancer cells. The description is as above. The format is cell-based. As to conditions: 72 hours exposure. As to the method: as §1, §2
Series [3] deals with MDA-MB-231 breast cancer cells. The series is described as above. The format is cell-based. To be noted: Homo sapiens, 72 hours exposure. The method, then:
as §1, §2

The subject of another series is SK-Mel-28 melanoma cells. The description is as above. The format is cell-based. To be noted: Homo sapiens, 72 hours exposure. As to the method:
as §1, §2

The subject of series [4] is DU145 prostate cancer cells. The series is described as above. To be noted: Homo sapiens, DU-145, 72 hours exposure. It counts as cell-based. As to the method: as §1, §2
The test system of another series is Skeletal myosin II. As to the kind of experiment: Actin-activated myosin II ATPase activity. The format is biochemical. To be noted: 50 μM, absence of Tpm3.1. The method, then:
FIG. 4: Effect of anti-tropomyosin compounds on actin-activated myosin II ATPase activity. Skeletal myosin II (30-60 nM) was incubated with 1% (v/v) DMSO or 50 μM of Blebbistatin, TR100 or compound 1001 for 5 min prior to mixing with 3 μM F-actin. Reactions were initiated with 1 mM ATP and inorganic phosphate release was detected spectrophotometrically. Data represents mean±SEM, for n=2-4 independent repeats. **P-value, 0.001<0.01.
To exclude an off-target activity, the impact of compound 1001 and TR100 (another small molecule with anti-tropomyosin activity) on myosin II ATPase activity was evaluated in the absence of Tpm3.1. The small molecule blebbistatin was included as a positive control known to inhibit myosin II ATPase activity. Blebbistatin acts by binding to the myosin-ADP-Pi complex and slowing the release of inorganic phosphate (Kovacs et al., 2004). Myosin II was pre-incubated with 50 μM of blebbistatin, TR100 or 1001 prior to mixing with F-actin. […] Compound 1001 had no effect on myosin ATPase activity at equivalent concentrations to that of TR100 (FIG. 4).

Series [5] has as its system actin cytoskeleton in SK-N-SH neuroblastoma cells. As to the kind of experiment: Microfilament disruption assay (phalloidin staining, linear feature quantitation). The format is cell-based. To be noted: 0-40 μM, 24 hours post treatment. The method, then: FIG. 1: Imaging and quantitation of actin filaments in SK-N-SH neuroblastoma cells treated with compound (A) 1007, (B) 1013 and (C) 1016. Cells were stained with 488-Atto-Phallodin and DAPI to visualize the actin filament bundles and the nucleus, respectively. Shown in the top panel is a representative gray scale immunofluorescent image from control (vehicle alone), 5 μM and 10 μM treated cells. […] The coloured lines indicate the detected actin filaments. Also shown is the quantitation of cell number, filament number/cell and filament number/cell area (μM^2). Statistical analysis was performed using a one way ANNOVA-multiple comparison where each drug treated group was compared to the control. ****p<0.0001, […].
The ability of compounds 1007, 1013 and 1016 to disrupt the actin cytoskeleton was assessed in vitro using the microfilament disruption assay (FIG. 1).
Briefly, SK-N-SH neuroblastoma cells were seeded at 1800 cells/well in a 384 Perkin Elmer High Content Imaging “Cell Carrier” plate and left to plate down 24 hours prior to treatment. Cells were then treated with 0-40 μM of the test compounds (1:2 serial dilution in a 10 point dose response). 24 hours post treatment, cells were fixed with 4% w/v paraformaldehyde (PBS), permeabilized with Triton-X-100 and stained with 488-Atto-Phallodin and DAPI to visualize the actin filament bundles and the nucleus respectively. Single plane images were obtained on the Perkin Elmer Opera confocal microscope using a 20× objective. Twelve fields of view per condition (representing approximately 300-800 cells) were imaged. Images were then exported and changes in the organization and numbers of actin filaments within the cell were quantitated using a linear feature detection algorithm developed by CSIRO (Vindin et al. 2014). This algorithm detects the “ridge lines” or “peaks” in local pixel intensity in the cell image. It is these “ridge lines” that correspond to actin filament bundles and allow us to quantitate the number of filaments per cell.

A further series relates to A375 melanoma xenograft. Briefly: A375 melanoma flank xenograft model. It counts as in vivo. To be noted: IV 60 mg/kg in 30% (w/v) Captisol daily for 16 days, mice. As to the method:
FIG. 5: Effect of compound 1001 on tumour growth in vivo. Compound 1001 was administered IV at 60 mg/kg for 16 days in a flank xenograft model of melanoma (A375). Tumour volume was measured every 2-3 days. **p<0.01, ***P<0.001.
In vivo efficacy studies for compound 1001 were conducted using an A375 melanoma xenograft model in Foxn-1 nu/nu athymic mice. The human melanoma cell line A375 (sourced from American Type Culture Collection (ATCC), USA) was used for developing the flank xenograft model. Briefly, five million cells were injected subcutaneously in the right flank region of the animal. When the tumors reached 130-150 mm^3 the animals were randomized into two groups, each group with 8 animals in them, so that the average tumor volume of all the groups was same.
Compound 1001 was delivered intravenously (IV) at 60 mg/kg in a 30% (w/v) Captisol (cyclodextrin-containing) formulation daily for 16 days. The control group was dosed with the Captisol vehicle alone.

The next series concerns the target alpha-fast Tm (Homo sapiens, UniProt P09493). Briefly: Cell free actin co-sedimentation assay. The format is binding. To be noted: 50 μM compound, 3 μM F-actin. The method, then: (§3) FIG. 3: Impact of compound 1001 on the polymerization of tropomyosin and its subsequent association with actin. Increasing concentrations of (A) cytoskeletal Tpm3.1 or (B) muscle alpha-fast Tm (0.3-4.0 μM) were pre-incubated with 1% (v/v) DMSO (vehicle control) or 50 μM ATM-1001 prior to combining with 3 μM F-actin. The Tm/F-actin mixture was sedimented and the ratio of tropomyosin:actin in the pellet, normalized to the ratio that occurs at tropomyosin saturation, was plotted against the concentration of unbound tropomyosin in the supernatant.
(§4) Cell free actin co-sedimentation assays were preformed to analyze the impact of compound 1001 on the polymerization of tropomyosin and subsequent association with actin. The impact of compound 1001 on Tpm3.1 binding was compared to the striated muscle isoform, alpha-fast Tm, which has an unrelated C-terminus.

The target in the next series is Tpm3.1 (Homo sapiens, UniProt P06753). As to the kind of experiment: Cell free actin co-sedimentation assay. The format is binding. As to conditions: 50 μM compound, 3 μM F-actin. The method, then:
as §3, §4

Sequence of alpha-fast Tm (P09493 whole entry): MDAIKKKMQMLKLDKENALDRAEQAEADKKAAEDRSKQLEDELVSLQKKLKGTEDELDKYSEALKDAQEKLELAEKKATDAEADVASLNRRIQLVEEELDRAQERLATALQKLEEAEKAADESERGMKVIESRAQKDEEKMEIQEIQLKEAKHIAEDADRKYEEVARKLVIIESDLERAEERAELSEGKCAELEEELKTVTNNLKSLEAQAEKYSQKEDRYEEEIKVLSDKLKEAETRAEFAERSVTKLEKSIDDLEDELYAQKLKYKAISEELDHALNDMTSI
Sequence of Tpm3.1 (P06753 1-248 isoform P06753-2): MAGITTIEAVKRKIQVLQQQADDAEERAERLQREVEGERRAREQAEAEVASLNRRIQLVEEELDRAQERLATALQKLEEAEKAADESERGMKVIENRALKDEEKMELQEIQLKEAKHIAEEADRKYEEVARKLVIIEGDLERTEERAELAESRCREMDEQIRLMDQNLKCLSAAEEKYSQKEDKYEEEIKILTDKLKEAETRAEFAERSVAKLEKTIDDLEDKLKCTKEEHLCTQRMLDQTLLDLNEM

The term IC50 denotes the concentration needed to halve the response being measured. A high value points to a need for much substance. Regarding `CN(C)CCCn1c2ccccc2c2cc(C(=O)N3CCN(CCc4ccccc4)CC3)ccc21` [Compound 1001, (9-(3-(dimethylamino)propyl)-9H-carbazol-3-yl)(4-phenethylpiperazin-1-yl)methanone], the IC50 in series [1] is 8.5 µM; in series [2], 5.5 µM; in series [3] it was 4.4 µM; in the series on SK-Mel-28 melanoma cells it was 2.3 µM; in series [4], greater than 30 µM. Also, the “effect on actin-activated myosin II ATPase activity” value in the series on Skeletal myosin II is “no effect”. Also, in series [5], the “disruption of the actin cytoskeleton” value is “strong on-target, dose-dependent profile”. Further, the “reduction in melanoma tumor growth” value in the series on A375 melanoma xenograft is recorded as roughly 40%. For the same compound, the tolerance of treatment entry with A375 melanoma xenograft is “well tolerated”. Further, the “binding affinity and cooperativity of alpha-fast Tm for F-actin” value at alpha-fast Tm was “not affected”. Moreover, at Tpm3.1, the “polymerization and association of Tpm3.1 with actin” value is “profoundly inhibited”.

For the compound `CCCCCCCCNC(=O)/C(C#N)=C/c1c(C)n(CCCN(C)C)c2ccccc12` [TR100], the “inhibition of actin-activated myosin ATPase activity” value in the series on Skeletal myosin II is recorded as roughly 70%.

Turning to `Cc1ccc2c(c1)C(=O)C1(O)CCN(c3ccccc3)C1=N2` (stereo not shown) [blebbistatin], the “effect on actin-activated myosin II ATPase activity” value in the series on Skeletal myosin II is given as “strongly inhibited”.
